Assay results from patent publication US7759345B2, “Antitumoral derivatives of ET-743” (priority 2001, dated 2010).
Like-named read-outs stand apart in the source and are kept apart here.

Key:
A-549 [1] = experiment: Inhibition of cell growth by counting cells, A-549; type: cell-based, human; conditions: Homo sapiens, A549, 72 h; three days of incubation; read-out: IC50 (molar) A-549
Procedure: (§1) 1°.—Inhibition of Cell Growth by Counting Cells.
(§2) This form of the assay employs 24 well multidishes of 16 mm diameter (Bergeron, 1984; Schroeder, 1981). The tumor cell lines employed are: P-388 (ATCC CCL 46), suspension culture of a lymphoid neoplasm from a DBA/2 mouse; A-549 (ATCC CCL 185), monolayer culture of a human lung carcinoma; HT-29 (ATCC HTB-38), monolayer culture of a human colon carcinoma; MEL-28 (ATCC HTB-72), monolayer culture of a human melanoma and DU-145 (ATCC HTB-81), monolayer culture of a human prostate carcinoma.
(§3) Cells were maintained, in logarithmic phase of growth in Eagle's Minimum Essential Medium, with Earle's Balanced Salts, with non-essential amino acids, with 2.0 mM L-Glutamine, without sodium bicarbonate (EMEM/neaa), supplemented with 10% Fetal Calf Serum (FCS), 10^−2 M. sodium bicarbonate and 0.1 U/l penicillin G+0.1 g/l streptomycin sulfate. For the experiments, cells are harvested from subconfluent cultures using trypsin and resuspended in fresh medium before plating.
(§4) A-549, HT-29, MEL-28 and DU-145 cells were seeded into 16 mm diameter wells at 1×10^4 cells per well in 1 ml aliquots of EMEM 5% FCS containing different concentrations of the sample to be tested. A separate set of cultures without drug was seeded as control of growth, to ensure that cells remained in exponential phase of growth. All determinations are carrying out in duplicate. After three days of incubation at 37° C., 5% CO2 in a 98% humid atmosphere cells were stained with 0.1% crystal violet. An approximately IC50 was determined by comparing the growth in wells with drug to the growth in wells control.
(§5) For quantifying the activity, after the incubation time, cells are trypsinized and counted in a Coulter Counter ZM. All counts (net cells per well), represent the average of duplicate wells. % G, percent of growth relative to cultures without drug. The results of these assays are used to generate dose-response curves from which more precise IC50 values are determined (sample concentration which produces 50% cell growth inhibition).
(§6) Obtained results may predict the usefulness of a certain drug as a potential cancer treatment. For this technique, compounds which show IC50 values smaller than 1 μg/ml are selected to continue with further studies. IC50's data allow to predict that not only could a drug be cystostatic, but also it could have a potential in terms of tumor reduction.

HT-29 [2] = experiment: Inhibition of cell growth by counting cells, HT-29; type: cell-based, human; conditions: Homo sapiens, HT-29, 72 h; three days of incubation; read-out: IC50 (molar) HT-29
Procedure: as §1, §2, §3, §4, §5, §6

A-549 [3] = experiment: Inhibition of cells growth by colorimetric assay (SRB), A-549; type: cell-based; conditions: for GI50 / LC50 (concentration for 50% cell killing): Homo sapiens, A549, 48 h; for GI50: read-out: A-549 GI50
Procedure: (§7) 2°.—Inhibition of Cells Growth by Colorimetric Assay.
(§8) A colorimetric type of assay, using sulforhodamine B (SRB) reaction has been adapted for a quantitative measurement of cell growth and viability [following the technique described by Philip Skehan, et al. (1990), New colorimetric cytotoxicity assay for anticancer drug screening, J. Natl. Cancer Inst., 82:1107-1112]
(§9) This form of the assay employs 96 well cell culture microplates of 9 mm diameter (Faircloth, 1988; Mosmann, 1983). Most of the cell lines are obtained from American Type Culture Collection (ATCC) derived from different human cancer types.
(§10) Cells are maintained in RPMI 1640 10% FBS, supplemented with 0.1 g/l penicillin and 0.1 g/l streptomycin sulfate and then incubated at 37° C., 5% CO2 and 98% humidity. For the experiments, cells were harvested from subconfluent cultures using trypsin and resuspended in fresh medium before plating.
(§11) Cells are seeded in 96 well microtiter plates, at 5×10^3 cells per well in aliquots of 195 μl medium, and they are allowed to attach to the plate surface by growing in drug free medium for 18 hours. Afterward, samples are added in aliquots of 5 μl in a ranging from 10 to 10^−8 μg/ml, dissolved in DMSO/EtOH/PBS (0.5:0.5:99). After 48 hours exposure, the antitumor effect are measured by the SRB methodology: cells are fixed by adding 50 μl of cold 50% (wt/vol) trichloroacetic acid (TCA) and incubating for 60 minutes at 4° C. Plates are washed with deionized water and dried. One hundred μl of SRB solution (0.4% wt/vol in 1% acetic acid) is added to each microtiter well and incubated for 10 minutes at room temperature. Unbound SRB is removed by washing with 1% acetic acid. Plates are air dried and bound stain is solubilized with Tris buffer. Optical densities are read on a automated spectrophotometric plate reader at a single wavelength of 490 nm.
(§12) The values for mean+/−SD of data from triplicate wells are calculated. Some parameters for cellular responses can be calculated: GI=growth inhibition, TGI=total growth inhibition (cytostatic effect) and LC=cell killing (cytotoxic effect).
(§13) Obtained results may predict the usefulness of a certain drug as a potential cancer treatment. For this technique, compounds which show GI50 values smaller than 10 μg/ml are selected to continue with further studies. GI50's data allow to predict that not only could a drug be cystostatic, but also it could have a potential in terms of tumor reduction.

HT-29 [4] = experiment: Inhibition of cells growth by colorimetric assay (SRB), HT-29; type: cell-based; conditions: for GI50 / LC50 (concentration for 50% cell killing): Homo sapiens, HT-29, 48 h
Procedure: as §7, §8, §9, §10, §11, §12, §13

[5] = read-out: A-549 LC50, SRB assay, 48 hours exposure
[6] = read-out: HT-29 LC50, SRB assay, 48 hours exposure
[7] = SRB assay, 48 hours exposure, read-out: HT-29 GI50

Row | SMILES | IC50 (A-549 [1]) | IC50 (HT-29 [2]) | LC50 (concentration for 50% cell killing) (A-549 [3]; [5]) | A-549 TGI (A-549 [3]; SRB assay, 48 hours exposure) | LC50 (concentration for 50% cell killing) (HT-29 [4]; [6]) | HT-29 TGI (HT-29 [4]; SRB assay, 48 hours exposure) | further results
1 | COc1cc2c(cc1OC(=O)CCc1ccccc1)CCN[C@]21CS[C@@H]2c3c(OC(C)=O)c(C)c4c(c3[C@H](COC1=O)N1C2[C@H]2c3c(cc(C)c(OC)c3O)C[C@@H]([C@@H]1C#N)N2C)OCO4 (some centres unmarked) [Compound 11] | 0.554 nM | 0.554 nM |  |  |  |  | 
2 | COc1cc2c(cc1OC(=O)CCCl)CCN[C@]21CS[C@@H]2c3c(OC(C)=O)c(C)c4c(c3[C@H](COC1=O)N1C2[C@H]2c3c(cc(C)c(OC)c3O)C[C@@H]([C@@H]1C#N)N2C)OCO4 (some centres unmarked) [Compound 12] | 0.116 nM | 0.116 nM |  |  |  |  | 
3 | COc1cc2c(cc1OC(=O)[C@H](C)NC(=O)OC(C)(C)C)CCN[C@]21CS[C@@H]2c3c(OC(C)=O)c(C)c4c(c3[C@H](COC1=O)N1C2[C@H]2c3c(cc(C)c(OC)c3O)C[C@@H]([C@@H]1C#N)N2C)OCO4 (some centres unmarked) [Compound 24] | 0.531 nM | 0.531 nM |  |  |  |  | 
4 | COc1cc2c(cc1OC(=O)OC(C)(C)C)CCN[C@]21CS[C@@H]2c3c(OC(C)=O)c(C)c4c(c3[C@H](COC1=O)N1C2[C@H]2c3c(cc(C)c(OC)c3OC)C[C@@H]([C@@H]1C#N)N2C)OCO4 (some centres unmarked) [Compound 45] | 0.113 nM | 0.113 nM |  |  |  |  | 
5 | COC1=C(C)C(=O)C2=C(C1=O)[C@@H]1C3[C@@H]4SC[C@]5(NCCc6cc(O)c(OC)cc65)C(=O)OC[C@@H](c5c6c(c(C)c(OC(C)=O)c54)OCO6)N3[C@@H](C#N)[C@H](C2)N1C (some centres unmarked) [Compound 52] | 1.27 nM | 1.27 nM |  |  |  |  | 
6 | CCCC(=O)Oc1cc2c(cc1OC)[C@@]1(CS[C@@H]3c4c(OC(C)=O)c(C)c5c(c4[C@H](COC1=O)N1C3[C@H]3c4c(cc(C)c(OC)c4OC(=O)CCC)C[C@@H]([C@@H]1O)N3C)OCO5)NCC2 (some centres unmarked) [Compound 81] | 5.54 nM | 5.54 nM |  |  |  |  | 
7 | CCCCCCCC(=O)Oc1cc2c(cc1OC)[C@@]1(CS[C@@H]3c4c(OC(C)=O)c(C)c5c(c4[C@H](COC1=O)N1C3[C@H]3c4c(cc(C)c(OC)c4OC(=O)CCCCCCC)C[C@@H]([C@@H]1O)N3C)OCO5)NCC2 (some centres unmarked) [Compound 82] | 98.6 nM | 98.6 nM |  |  |  |  | 
8 | COc1cc2c(cc1OC(=O)/C=C/c1ccccc1)CCN[C@]21CS[C@@H]2c3c(OC(C)=O)c(C)c4c(c3[C@H](COC1=O)N1C2[C@H]2c3c(cc(C)c(OC)c3OC(=O)/C=C/c3ccccc3)C[C@@H]([C@@H]1O)N2C)OCO4 (some centres unmarked) [Compound 84] | 48.9 nM | 48.9 nM |  |  |  |  | 
9 | COc1cc2c(cc1O)CCN[C@]21CS[C@@H]2c3c(OC(=O)CCCC[C@@H]4SCC5NC(=O)NC54)c(C)c4c(c3[C@H](COC1=O)N1C2[C@H]2c3c(cc(C)c(OC)c3OC(=O)CCCCC3SCC5NC(=O)NC53)C[C@@H]([C@@H]1C#N)N2C)OCO4 (some centres unmarked) [Compound 148] |  |  |  |  |  |  | A-549 TGI (A-549 [3]; A-549, SRB, 48 hours exposure): 5.19E-07; GI50 (A-549 [3]; A-549, SRB, 48 hours exposure): 255 nM; LC50 (concentration for 50% cell killing) (A-549 [3]; read-out: A-549 LC50, A-549, SRB, 48 hours exposure): 2880 nM; HT-29 TGI (HT-29 [4]; HT-29, SRB, 48 hours exposure): 3.32E-07; GI50 (HT-29 [4]; HT-29, SRB, 48 hours exposure, read-out: HT-29 GI50): 140 nM; LC50 (concentration for 50% cell killing) (HT-29 [4]; read-out: HT-29 LC50, HT-29, SRB, 48 hours exposure): 786 nM
10 | CCCC(=O)Oc1cc2c(cc1OC)[C@@]1(CS[C@@H]3c4c(OC(C)=O)c(C)c5c(c4[C@H](COC1=O)N1C3[C@H]3c4c(cc(C)c(OC)c4OC(=O)CCC)C[C@@H]([C@@H]1C#N)N3C(=O)OC(C)(C)C)OCO5)NCC2 (some centres unmarked) [Compound 193] |  |  | 100 nM | 4.01E-09 | 20100 nM | 2.01E-08 | GI50 (A-549 [3]): 0.401 nM; GI50 (HT-29 [4]; read-out: HT-29 GI50): 0.1 nM
11 | COc1cc2c(cc1O)CCN(C)[C@]21CS[C@@H]2c3c(OC(C)=O)c(C)c4c(c3[C@H](COC1=O)N1C2[C@H]2c3c(cc(C)c(OC)c3O)C[C@@H]([C@@H]1C#N)N2C(=O)OC(C)(C)C)OCO4 (some centres unmarked) [Compound 200] |  |  | 115 nM | 3.45E-08 | 1150 nM | 8.05E-09 | GI50 (A-549 [3]; SRB assay, 48 hours exposure): 23 nM; GI50 (HT-29 [4]; [7]): 23 nM
12 | COc1cc2c(cc1OC(C)=O)CCN[C@]21CS[C@@H]2c3c(OC(C)=O)c(C)c4c(c3[C@H](COC1=O)N1C2[C@@H]2N[C@@H](Cc3cc(C)c(OC)c(O)c32)[C@@H]1O)OCO4 (some centres unmarked) [Compound 210] |  |  | 38000 nM | 5.06E-13 | 63300 nM | 6.33E-08 | 
13 | CCCC(=O)Oc1cc2c(cc1OC)[C@@]1(CS[C@@H]3c4c(OC(C)=O)c(C)c5c(c4[C@H](COC1=O)N1C3[C@@H]3N[C@@H](Cc4cc(C)c(OC)c(O)c43)[C@@H]1O)OCO5)NCC2 (some centres unmarked) [Compound 211] |  |  | 61100 nM | 6.11E-09 | 61100 nM | 1.22E-12 | GI50 (A-549 [3]; SRB assay, 48 hours exposure): 0.00367 nM; GI50 (HT-29 [4]; [7]): 0.00122 nM
14 | CC(=O)Oc1c(C)c2c(c3c1[C@H]1SCC(=O)C(=O)OC[C@@H]3N3C1[C@H]1c4c(cc(C)c(O)c4O)C[C@@H]([C@@H]3C#N)N1C)OCO2 (some centres unmarked) [Compound 219] |  |  | 16500 nM | 1.65E-06 | 16500 nM | 1.65E-06 | GI50 (A-549 [3]; SRB assay, 48 hours exposure): 8.24 nM; GI50 (HT-29 [4]; [7]): 82.4 nM
15 | COc1cc2c(cc1O)CCN[C@]21CS[C@@H]2c3c(OC(C)=O)c(C)c4c(c3[C@H](COC1=O)N1C2[C@H]2c3c(cc(C)c(O)c3O)C[C@@H]([C@@H]1C#N)N2C)OCO4 (some centres unmarked) [Compound 220] |  |  | 6610 nM | 3.96E-07 |  |  | GI50 (A-549 [3]): 132 nM; GI50 (HT-29 [4]; read-out: H-T29 GI50): 132 nM; LC50 (concentration for 50% cell killing) (HT-29 [4]; read-out: H-T29 LC50, SRB assay, 48 hours exposure): 1320 nM; H-T29 TGI (HT-29 [4]; SRB assay, 48 hours exposure): 5.28E-07
